Measurements taken from patent publication US20050214759A1, “Enzymatic redox labelling of nucleic acids” (priority 2001, published 2005).

What was measured:
T7 RNA polymerase = biological target: T1, T7 RNA polymerase (Escherichia phage T7, UniProt P00573); test: Incorporation of Fc-UTP into RNA in the course of transcription; assay type: biochemical
T1 construct: purchased USB
Experimental: Circular plasmid pT7Mta which contains the promoter for T7 RNA polymerase followed by the gene for aptamer C40 and a T7 terminator sequence was used for transcription. T7 RNA polymerase tends to produce short abortive RNA transcripts when modified nucleotides are incorporated into the first 12 nucleotides of RNA.
A typical transcription mixture (10 μL) contained 40 mM tris-HCl (pH 8.0), 15 mM MgCl2, 5 mM DTT, 0.05 mg/mL BSA, 1 UOL Rnasin, 0.4 mM NTPs, 10 ug/mL pT7Mta template, and 10U/uL T7 RNA polymerase. In some reaction mixtures, UTP was partially or fully substituted with […] in such a way that the total concentration of UTP and Fc-UTP was still 0.4 mM. Reaction mixtures were incubated at 37° C. for 2 h. Reactions were stopped by addition of 10 μL of gel loading buffer (98% formamide, 10 mM EDTA (pH 8.0), 0.025% bromophenol blue and 0.025% xylene cyanole PF) and heated at 95° C. for 2 min. RNA fragments were separated by 10% PAGE/8 M urea. The gel was stained by SYBR Green II (Sigma) according to manufacturers procedure, and visualised on a Fluorimager (Bio-Rad).

[1] = Cyclic voltammetry of Fc-NTP; assay type: physicochemical; conditions: vs. Ag/AgCl; 20 mM tris-acetate pH 7.4, 100 mM KCl, 1 mM MgCl2; scan rate 20 mV/s
Description: Fc-dUTP and Fc-UTP have characteristic absorption spectra which correspond to a superposition of spectra for the modified nucleotide and ferrocene carboxamide constituents. They have a strong absorption in the UV region and a seal, broad peak characteristics of ferrocene near 440 nm. Cyclic voltammetry of Fc-dUTP yields a symmetric peak with E1/2=398 mV vs. Ag/AgCl, consistent with reversible redox reaction of the Fc moiety. The redox potential of Fc-dUTP is 90 mV greater than the potential of ferrocenecarboxylate (310 mV vs. Ag/AgCl) measured in the same buffer (data now shown), reflecting the change of pentadienyl ring substituent (—COO to —CONHR) to one which is more electron-withdrawing. The observed potential is close to that reported for a ferrocene carboxamide moiety attached to the 5′-end of DNA oligonucleotides in aqueous buffer (406-425 mV vs. Ag/AgCl).
Cyclic voltammograms were recorded with an electrochemical analyser (BAS). The three-electrode system consisted of a glassy carbon working electrode, a Ag/AgCl (saturated KCl) reference electrode (Eref=206 mV) and a platinum counter electrode. Experiments were performed in a 5 ml electrochemical cell containing 0.8 mM Fc-NTP in 20 mM tris-acetate (pH 7.4), 100 mM KCl, and 1 mM MgCl2 at a scan rate of 20 mV/s. The scan range was from −0.1 to +0.8 V (vs. Ag/AgCl). (See FIG. 2).

T1 sequence (P00573 whole entry): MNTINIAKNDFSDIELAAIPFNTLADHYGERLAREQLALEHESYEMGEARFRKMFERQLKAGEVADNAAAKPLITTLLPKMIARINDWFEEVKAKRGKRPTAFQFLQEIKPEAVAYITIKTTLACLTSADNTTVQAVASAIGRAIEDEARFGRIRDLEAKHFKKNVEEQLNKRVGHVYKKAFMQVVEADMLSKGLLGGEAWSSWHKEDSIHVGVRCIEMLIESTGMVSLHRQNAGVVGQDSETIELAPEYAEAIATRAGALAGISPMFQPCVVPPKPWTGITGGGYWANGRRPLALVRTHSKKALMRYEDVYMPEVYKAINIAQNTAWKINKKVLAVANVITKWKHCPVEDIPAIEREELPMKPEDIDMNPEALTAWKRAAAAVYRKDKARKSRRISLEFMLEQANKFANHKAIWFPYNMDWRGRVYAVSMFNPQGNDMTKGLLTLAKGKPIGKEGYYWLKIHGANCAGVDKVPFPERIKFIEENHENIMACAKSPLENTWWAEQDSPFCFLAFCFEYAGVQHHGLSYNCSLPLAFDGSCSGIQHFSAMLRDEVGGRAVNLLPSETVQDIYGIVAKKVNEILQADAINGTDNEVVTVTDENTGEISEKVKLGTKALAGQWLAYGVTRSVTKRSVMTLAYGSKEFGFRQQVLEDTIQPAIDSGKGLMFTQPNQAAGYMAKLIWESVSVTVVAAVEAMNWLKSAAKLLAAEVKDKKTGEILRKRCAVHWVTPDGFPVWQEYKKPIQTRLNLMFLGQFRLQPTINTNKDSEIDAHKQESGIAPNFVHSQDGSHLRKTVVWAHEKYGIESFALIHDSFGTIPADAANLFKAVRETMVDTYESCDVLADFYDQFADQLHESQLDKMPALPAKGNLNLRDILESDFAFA

Row | Molecule | amount of RNA product formed (T7 RNA polymerase; substitution of UTP by Fc-UTP, total 0.4 mM) | amount of RNA product formed (T7 RNA polymerase; total absence of UTP (full substitution by Fc-UTP)) | E1/2 (redox potential) [1] [mV]
1 | O=C(NCC=Cc1cn([C@@H]2O[C@H](COP(=O)(O)OP(=O)(O)OP(=O)(O)O)[C@@H](O)[C@H]2O)c(=O)[nH]c1=O)[c-]1cccc1.[Fe+2].c1cc[cH-]c1 [Fc-UTP, 5-(3ferrocenecarboxamidopropenyl-1)-uridine-5′-triphosphate] | significant decrease in the amount of RNA product formed | synthesized a significant amount of RNA product | –
2 | ferrocenecarboxylate [reference compound] | – | – | 310
